Measured values from patent US8106055B2, “Substituted amide compounds” (Gruenenthal GmbH, priority 2007, dated 2012).
Where two headings read alike, the source gives them in different places.

Columns and labels:
human μ opiate receptor = target: T1, human μ opiate receptor (Homo sapiens, UniProt P35372); assay: Affinity for the human μ opiate receptor ([3H]-naloxone displacement, CHO-K1 receptor membrane preparation, SPA); format: binding; conditions: 1.5 h, test concentration 1 μM
T1 construct: purchased PerkinElmer Life Sciences, Zaventem, Belgium RB-HOM; host or cells: CHO-K1 cells (membrane preparation)
In short: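 SPA, CHO-K1 hμ membranes; 1 nmol/l [3H]-naloxone; Tris-HCl 50 mmol/l + 0.06% BSA; 90 min RT; NSB with 100 μmol/l naloxone; β-counting. Readout: % inhibition of specific binding at 1 μM test compound.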

[1] = target: T2, human bradykinin 1 receptor (B1R) (Homo sapiens, UniProt P46663); assay: Functional investigation on the human bradykinin 1 receptor (B1R), Ca2+ FLIPR assay in CHO K1 hB1R cells; format: cell-based; conditions: CHO-K1, B1R antagonism human, test substance 10 μM, read-out: B1R Ant. h [10 μM] % Inhibition
T2 construct: expressed in transfected cells; host or cells: CHO K1 cells
T2 sequence (P46663 1-353): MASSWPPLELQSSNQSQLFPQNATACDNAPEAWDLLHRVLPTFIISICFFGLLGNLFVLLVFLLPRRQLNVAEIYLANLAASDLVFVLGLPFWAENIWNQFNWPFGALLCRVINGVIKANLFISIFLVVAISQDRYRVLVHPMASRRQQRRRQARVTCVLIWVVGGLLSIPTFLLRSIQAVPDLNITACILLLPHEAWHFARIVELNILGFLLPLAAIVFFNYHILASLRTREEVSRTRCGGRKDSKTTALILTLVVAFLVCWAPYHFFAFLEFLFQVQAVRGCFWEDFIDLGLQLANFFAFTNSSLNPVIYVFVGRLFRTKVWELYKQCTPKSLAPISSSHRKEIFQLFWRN
In short: (§1)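 Peak Ca2+-dependent fluorescence in B1R-transfected CHO K1 cells measures antagonism of an EC80 agonist challenge given 10-20 min after compound. Agonist is Lys-Des-Arg9-bradykinin for human, Des-Arg9-bradykinin for rat receptor.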

[2] = target: T3, bradykinin 1 receptor (B1R) of the rat (Rattus norvegicus, UniProt P97583); assay: Functional investigation on the rat bradykinin 1 receptor (B1R), Ca2+ FLIPR assay in CHO K1 rB1R cells; format: cell-based; conditions: CHO-K1, B1R antagonism rat, test substance 10 μM, read-out: B1R Ant. r [10 μM] % Inhibition
T3 construct: expressed in transfected cells; host or cells: CHO K1 cells
T3 sequence (P97583 1-337): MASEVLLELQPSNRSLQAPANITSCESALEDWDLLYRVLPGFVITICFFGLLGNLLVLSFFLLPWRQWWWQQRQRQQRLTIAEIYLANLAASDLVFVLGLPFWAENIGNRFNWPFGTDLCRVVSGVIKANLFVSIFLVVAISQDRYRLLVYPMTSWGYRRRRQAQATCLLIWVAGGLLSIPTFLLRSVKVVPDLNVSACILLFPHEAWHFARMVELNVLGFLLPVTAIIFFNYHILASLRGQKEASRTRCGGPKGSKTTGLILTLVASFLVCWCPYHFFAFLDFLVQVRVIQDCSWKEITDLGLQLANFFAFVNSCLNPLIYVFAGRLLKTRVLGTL
In short: as §1

[3] = Table 3, to be read in the same way as Table 1, read-out: μ
[4] = % inhibition compared with the maximum achievable inhibition

T1 sequence (P35372 whole entry): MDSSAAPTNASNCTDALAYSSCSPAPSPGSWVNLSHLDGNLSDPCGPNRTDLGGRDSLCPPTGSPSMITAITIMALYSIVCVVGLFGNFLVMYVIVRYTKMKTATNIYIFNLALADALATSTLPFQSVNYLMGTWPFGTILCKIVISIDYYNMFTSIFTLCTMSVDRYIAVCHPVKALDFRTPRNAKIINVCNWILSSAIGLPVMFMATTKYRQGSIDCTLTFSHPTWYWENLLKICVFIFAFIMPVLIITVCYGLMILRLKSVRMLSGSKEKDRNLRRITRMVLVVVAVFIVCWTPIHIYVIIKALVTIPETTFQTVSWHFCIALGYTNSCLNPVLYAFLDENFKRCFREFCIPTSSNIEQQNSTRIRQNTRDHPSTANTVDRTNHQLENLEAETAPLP

COc1cc(C)c(S(=O)(=O)N2CCCCC2COCC(=O)NC2CCC(C(c3ccccc3)N3CCN(C)CC3)CC2)c(C)c1 (stereo not drawn) [Example 735, 2-((1-(4-methoxy-2,6-dimethylphenylsulfonyl)piperidin-2-yl)methoxy)-N-(4-((4-methylpiperazin-1-yl)(phenyl)methyl)cyclohexyl)acetamide] gave an inhibition at 1 µM (human μ opiate receptor; [3]) of 56%, an inhibition at 10 µM ([1]; Ca2+ FLIPR, CHO K1 hB1R cells) of 103% and an inhibition at 10 µM ([2]; Ca2+ FLIPR, CHO K1 rB1R cells) of 103%.

Compound CN1CCN(C(c2ccccc2)C2CCC(NC(=O)COCCN(C)S(=O)(=O)c3c(Cl)cc(Cl)cc3Cl)CC2)CC1 (stereo not drawn) [Example 714, N-(4-((4-methylpiperazin-1-yl)(phenyl)methyl)cyclohexyl)-2-(2-(2,4,6-trichloro-N-methylphenylsulfonamido)ethoxy)acetamide] has an inhibition at 1 µM (human μ opiate receptor; [3]) of 52%, an inhibition at 10 µM ([1]; Ca2+ FLIPR, CHO K1 hB1R cells) of 104% and an inhibition at 10 µM ([2]; Ca2+ FLIPR, CHO K1 rB1R cells) of 64%.

COc1cc(C)c(S(=O)(=O)N(C)CCOCC(=O)NC2CCC(C(c3ccccc3)N3CCCC3)CC2)c(C)c1C (stereo not drawn) [Example 618, 2-{2-[(4-methoxy-2,3,6-trimethylbenzenesulfonyl)-methylamino]-ethoxy}-N-[4-(phenylpyrrolidin-1-yl-methyl)-cyclohexyl]-acetamide] gave an inhibition at 1 µM (human μ opiate receptor; Table 2, read-out: μ receptor) of 43%, an inhibition at 10 µM ([1]; Ca2+ FLIPR, CHO K1 hB1R cells) of 95% and an inhibition at 10 µM ([2]; Ca2+ FLIPR, CHO K1 rB1R cells) of 3%.

COc1cc(C)c(S(=O)(=O)N(C)CCOCC(=O)N2CCC(C(c3cccc(F)c3)N3CCN(C)CC3)CC2)c(C)c1 (stereo not drawn) [Example 799, N-(2-(2-(4-((3-fluorophenyl)(4-methylpiperazin-1-yl)methyl)piperidin-1-yl)-2-oxoethoxy)ethyl)-4-methoxy-N,2,6-trimethylbenzenesulfonamide] was tested, and the inhibition at 1 µM (human μ opiate receptor; [3]) was 16%, the inhibition at 10 µM [1, 4] was 110% and the inhibition at 10 µM [2, 4] was 100%.

With CN1CCN(C(c2ccccc2)C2CCN(C(=O)COCC3CCc4ccccc4N3S(=O)(=O)c3ccc(Cl)c(Cl)c3)CC2)CC1 (stereo not drawn) [Example 810, 2-((1-(3,4-dichlorophenylsulfonyl)-1,2,3,4-tetrahydroquinolin-2-yl)methoxy)-1-(4-((4-methylpiperazin-1-yl)(phenyl)methyl)piperidin-1-yl)ethanone] the inhibition at 1 µM (human μ opiate receptor; [3]) was 19%, the inhibition at 10 µM [1, 4] was 102% and the inhibition at 10 µM [2, 4] was 97%.

Compound CN1CCN(C(c2ccc(F)cc2)C2CCN(C(=O)COCC3CCc4ccccc4N3S(=O)(=O)c3ccc(Cl)c(Cl)c3)CC2)CC1 (stereo not drawn) [Example 808, 2-((1-(3,4-dichlorophenylsulfonyl)-1,2,3,4-tetrahydroquinolin-2-yl)methoxy)-1-(4-((4-fluorophenyl)(4-methylpiperazin-1-yl)methyl)piperidin-1-yl)ethanone] has an inhibition at 1 µM (human μ opiate receptor; [3]) of 12%, an inhibition at 10 µM [1, 4] of 122% and an inhibition at 10 µM [2, 4] of 75%.

For COc1cc(C)c(S(=O)(=O)N2CCC(OCC(=O)NC3CCC(C(c4ccccc4)N4CCCC4)CC3)C2)c(C)c1 (stereo not drawn) [Example 629, 2-(1-(4-methoxy-2,6-dimethylphenylsulfonyl)pyrrolidin-3-yloxy)-N-(4-(phenyl(pyrrolidin-1-yl)methyl)cyclohexyl)acetamide], the inhibition at 1 µM (human μ opiate receptor; [3]) was 37%, the inhibition at 10 µM ([1]; Ca2+ FLIPR, CHO K1 hB1R cells) was 96% and the inhibition at 10 µM ([2]; Ca2+ FLIPR, CHO K1 rB1R cells) was 67%.

O=C(COCC1CCCN1S(=O)(=O)c1c(Cl)cc(Cl)cc1Cl)NC1CCC(C(CCc2ccccc2)N2CCOCC2)CC1 (stereo not drawn) [Example 696, N-(4-(1-morpholino-3-phenylpropyl)cyclohexyl)-2-((1-(2,4,6-trichlorophenylsulfonyl)pyrrolidin-2-yl)methoxy)acetamide] was tested, and the inhibition at 1 µM (human μ opiate receptor; [3]) was 21%, the inhibition at 10 µM ([1]; Ca2+ FLIPR, CHO K1 hB1R cells) was 43% and the inhibition at 10 µM ([2]; Ca2+ FLIPR, CHO K1 rB1R cells) was 91%.

With CN1CCN(C(c2ccccc2)C2CCC(NC(=O)COCC3CCCN3S(=O)(=O)c3c(Cl)cc(Cl)cc3Cl)CC2)CC1 (stereo not drawn) [Example 732, N-(4-((4-methylpiperazin-1-yl)(phenyl)methyl)cyclohexyl)-2-((1-(2,4,6-trichlorophenylsulfonyl)pyrrolidin-2-yl)methoxy)acetamide] the inhibition at 1 µM (human μ opiate receptor; [3]) was 61%, the inhibition at 10 µM ([1]; Ca2+ FLIPR, CHO K1 hB1R cells) was 100% and the inhibition at 10 µM ([2]; Ca2+ FLIPR, CHO K1 rB1R cells) was 84%.

In the case of COc1cc(C)c(S(=O)(=O)N2CCC(OCC(=O)NC3CCC(C(CCc4ccccc4)N4CCCCC4)CC3)C2)c(C)c1 (stereo not drawn) [Example 669, 2-(1-(4-methoxy-2,6-dimethylphenylsulfonyl)pyrrolidin-3-yloxy)-N-(4-(3-phenyl-1-(piperidin-1-yl)propyl)cyclohexyl)acetamide], the inhibition at 1 µM (human μ opiate receptor; [3]) is reported as 20%, the inhibition at 10 µM ([1]; Ca2+ FLIPR, CHO K1 hB1R cells) is reported as 103% and the inhibition at 10 µM ([2]; Ca2+ FLIPR, CHO K1 rB1R cells) is reported as 95%.

With O=C(COCC1CCCN1S(=O)(=O)c1c(Cl)cc(Cl)cc1Cl)NCC1CCC(C(CCc2ccccc2)N2CCCC2)CC1 (stereo not drawn) [Example 752, N-((4-(3-phenyl-1-(pyrrolidin-1-yl)propyl)cyclohexyl)methyl)-2-((1-(2,4,6-trichlorophenylsulfonyl)pyrrolidin-2-yl)methoxy)acetamide] the inhibition at 1 µM (human μ opiate receptor; [3]) was 82%, the inhibition at 10 µM ([1]; Ca2+ FLIPR, CHO K1 hB1R cells) was 103% and the inhibition at 10 µM ([2]; Ca2+ FLIPR, CHO K1 rB1R cells) was 104%.

CN(CCOCC(=O)NC1CCC(C(c2ccccc2)N2CCOCC2)CC1)S(=O)(=O)c1c(Cl)cc(C(F)(F)F)cc1Cl (stereo not drawn) [Example 689, 2-(2-(2,6-dichloro-N-methyl-4-(trifluoromethyl)phenylsulfonamido)ethoxy)-N-(4-(morpholino(phenyl)methyl)cyclohexyl)acetamide] showed an inhibition at 1 µM (human μ opiate receptor; [3]) of 6%, an inhibition at 10 µM ([1]; Ca2+ FLIPR, CHO K1 hB1R cells) of 22% and an inhibition at 10 µM ([2]; Ca2+ FLIPR, CHO K1 rB1R cells) of 39%.

Compound O=C(COCC1CCCN1S(=O)(=O)c1c(Cl)cc(Cl)cc1Cl)NCC1CCC(C(CCc2ccccc2)N2CCOCC2)CC1 (stereo not drawn) [Example 751, N-((4-(1-morpholino-3-phenylpropyl)cyclohexyl)methyl)-2-((1-(2,4,6-trichlorophenylsulfonyl)pyrrolidin-2-yl)methoxy)acetamide] has an inhibition at 1 µM (human μ opiate receptor; [3]) of 32%, an inhibition at 10 µM ([1]; Ca2+ FLIPR, CHO K1 hB1R cells) of 45% and an inhibition at 10 µM ([2]; Ca2+ FLIPR, CHO K1 rB1R cells) of 73%.

Work on O=C(COCC1CCCN(S(=O)(=O)c2c(Cl)cc(Cl)cc2Cl)C1)NC1CCC(C(CCc2ccccc2)N2CCOCC2)CC1 (stereo not drawn) [Example 741, N-(4-(1-morpholino-3-phenylpropyl)cyclohexyl)-2-((1-(2,4,6-trichlorophenylsulfonyl)piperidin-3-yl)methoxy)acetamide] yielded an inhibition at 1 µM (human μ opiate receptor; [3]) of 16%, an inhibition at 10 µM ([1]; Ca2+ FLIPR, CHO K1 hB1R cells) of -5% and an inhibition at 10 µM ([2]; Ca2+ FLIPR, CHO K1 rB1R cells) of 46%.

Work on COc1cc(C)c(S(=O)(=O)N(C)CCOCC(=O)NCC2CCC(C(CCc3ccccc3)N3CCOCC3)CC2)c(C)c1 (stereo not drawn) [Example 719, 2-(2-(4-methoxy-N,2,6-trimethylphenylsulfonamido)ethoxy)-N-((4-(1-morpholino-3-phenylpropyl)cyclohexyl)methyl)acetamide] yielded an inhibition at 1 µM (human μ opiate receptor; [3]) of 6%, an inhibition at 10 µM ([1]; Ca2+ FLIPR, CHO K1 hB1R cells) of 103% and an inhibition at 10 µM ([2]; Ca2+ FLIPR, CHO K1 rB1R cells) of 101%.

For O=C(COC1CCN(S(=O)(=O)c2c(Cl)cc(Cl)cc2Cl)C1)NC1CCC(C(CCc2ccccc2)N2CCOCC2)CC1 (stereo not drawn) [Example 666, N-(4-(1-morpholino-3-phenylpropyl)cyclohexyl)-2-(1-(2,4,6-trichlorophenylsulfonyl)pyrrolidin-3-yloxy)acetamide], the inhibition at 1 µM (human μ opiate receptor; [3]) was 6%, the inhibition at 10 µM ([1]; Ca2+ FLIPR, CHO K1 hB1R cells) was 11% and the inhibition at 10 µM ([2]; Ca2+ FLIPR, CHO K1 rB1R cells) was 5%.

For O=C(COCC1CCCCN1S(=O)(=O)c1c(Cl)cc(Cl)cc1Cl)NC1CCC(C(CCc2ccccc2)N2CCOCC2)CC1 (stereo not drawn) [Example 737, N-(4-(1-morpholino-3-phenylpropyl)cyclohexyl)-2-((1-(2,4,6-trichlorophenylsulfonyl)piperidin-2-yl)methoxy)acetamide], the inhibition at 1 µM (human μ opiate receptor; [3]) was 22%, the inhibition at 10 µM ([1]; Ca2+ FLIPR, CHO K1 hB1R cells) was 23% and the inhibition at 10 µM ([2]; Ca2+ FLIPR, CHO K1 rB1R cells) was 56%.

Compound CN(CCOCC(=O)NCC1CCC(C(c2ccccc2)N2CCCC2)CC1)S(=O)(=O)c1c(Cl)cccc1Cl (stereo not drawn) [Example 643, 2-(2-(2,6-dichloro-N-methylphenylsulfonamido)ethoxy)-N-((4-(phenyl(pyrrolidin-1-yl)methyl)cyclohexyl)methyl)acetamide] has an inhibition at 1 µM (human μ opiate receptor; [3]) of 76%, an inhibition at 10 µM ([1]; Ca2+ FLIPR, CHO K1 hB1R cells) of 102% and an inhibition at 10 µM ([2]; Ca2+ FLIPR, CHO K1 rB1R cells) of 62%.
